These results are taken from ChEMBL document CHEMBL3769343, “Spiromastilactones: A new class of influenza virus inhibitors from deep-sea fungus” (Eur J Med Chem, 2016).

Data set [1] concerns Influenza A virus. Description: Antiviral activity against Influenza A virus A/WSN/1933 (H1N1) infected in MDCK cells assessed as protection against virus induced cytopathic effect after 40 hrs by Celltiter-Glo assay. It counts as functional, organism-based.
Data set [2] concerns Influenza B virus. Description: Antiviral activity against influenza B virus B/SZ/155 infected in dog MDCK cells assessed as inhibition of virus induced cytopathic effect after 40 hrs by Cell-Titer-Glo assay. The data set is classed as functional, organism-based. As to conditions: B/SZ/155, MDCK. For orientation: Protection from cytopathic effect is a common read-out in antiviral testing.

Data set [3] is described as follows: Cytotoxicity against MDCK cells after 40 hrs by Celltiter-Glo assay. Particulars: dog. It counts as cell-based, Canis lupus familiaris. A general note: In ATP-based viability assays light output follows the ATP content of the culture.
Data set [4] concerns Influenza A virus (A/WSN/1933(H1N1)). Description: Binding affinity to Influenza A virus A/WSN/33 (H1N1) HA1 protein assessed as decrease in protein affinity to sialic acid receptor at 0.625 uM by surface plasmon resonance assay. A general note: SPR reads the build-up and loss of mass on a sensor chip optically.
Data set [5] has the same test system. Description: (§1) Binding affinity to Influenza A virus A/WSN/33 (H1N1) HA1 protein by surface plasmon resonance assay.
The test system is the same in data set [6]. Description: Binding affinity to Influenza A virus A/WSN/33 (H1N1) HA1 protein assessed as decrease in protein affinity to sialic acid receptor by measuring association constant by surface plasmon resonance assay (reference value: 20810/s).
The nature of data set [7]: Binding affinity to Influenza A virus A/WSN/33 (H1N1) HA1 protein assessed as decrease in protein affinity to sialic acid receptor by measuring dissociation constant by surface plasmon resonance assay (reference value: 0.001473/Ms). Also noted: species or system Influenza A virus (A/WSN/1933(H1N1)).
Data set [8] relates to Influenza A virus (A/WSN/1933(H1N1)). Description: Binding affinity to Influenza A virus A/WSN/33 (H1N1) HA1 protein assessed as decrease in protein affinity to sialic acid receptor at 10 uM by surface plasmon resonance assay.
For data set [9] the test system is unchanged. Description: Binding affinity to Influenza A virus A/WSN/33 (H1N1) HA1 protein assessed as decrease in protein affinity to sialic acid receptor at 2.5 uM by surface plasmon resonance assay.
Data set [10] shares this test system. Description: Binding affinity to Influenza A virus A/WSN/33 (H1N1) HA1 protein assessed as decrease in protein affinity to sialic acid receptor at 1.25 uM by surface plasmon resonance assay.
Data set [11] shares this test system. Description: Binding affinity to Influenza A virus A/WSN/33 (H1N1) HA1 protein assessed as decrease in protein affinity to sialic acid receptor at 5 uM by surface plasmon resonance assay.
Data set [12] in a line: Binding affinity to Influenza A virus A/WSN/33 (H1N1) HA1 protein assessed as decrease in protein affinity to sialic acid receptor by surface plasmon resonance assay (reference value: 70 nM). More on the design: species or system Influenza A virus (A/WSN/1933(H1N1)).
A short description of data set [13]: Inhibition of Influenza A virus A/WSN/33 (H1N1) HA1 protein by surface plasmon resonance assay. Also noted: species or system Influenza A virus (A/WSN/1933(H1N1)).
In data set [14] the test system is Influenza A virus (A/WSN/1933(H1N1)). Description: Binding affinity to Influenza A virus A/WSN/33 (H1N1) HA1 protein assessed as decrease in protein affinity to sialic acid receptor at 20 uM by surface plasmon resonance assay.
Data set [15] is described as follows: as §1. More on the design: species or system Influenza A virus (A/WSN/1933(H1N1)).

One may read the IC50 as the midpoint of a concentration-inhibition curve. A word on the EC50: it is the concentration that produces a half-maximal response. As usually defined, the CC50 is the concentration giving 50% cytotoxicity. Read a high CC50 as lower toxicity to the cells. `NC12CC3CC(CC(C3)C1)C2` [AMANTADINE]: the IC50 in [1] was found to be 13 µM. Further, in [2], the concentration giving a half-maximal response (EC50) was determined as 144 µM. Also, the 50% cytotoxic concentration (CC50) at 40 h in [3] was over 100 µM.

Take `CCCc1cc(O)cc(OC)c1Oc1c(Cl)c(O)c(Cl)c2c1C(=O)O[C@@H]2CC`: the Activity in data set [4] came to 3.4 RU; in data set [8], 55.1 RU; in data set [9] it was 13 RU; in [10], 7 RU; in [11], 27.1 RU; in [14] it was 114 RU. Moreover, the Ka stood at 0.46 ×10⁴ /Ms in data set [5] and 3560 s⁻¹ in data set [6]. Besides, the IC50 in [1] and in [13] was 74.9 µM throughout. Moreover, the Kd in data set [7] worked out at 0.0007964 M⁻¹ s⁻¹; in data set [12], 0.224 µM. The molecule further registered a 50% cytotoxic concentration (CC50) at 40 h in [3] of over 100 µM.

In data set [5], `CCCc1cc(O)c(Cl)c(OC)c1Oc1c(Cl)c(O)c(Cl)c2c1C(=O)O[C@@H]2CC` registered a Ka of 0.77 ×10⁴ /Ms. Besides, the Kd in data set [15] amounted to 55 µM. Moreover, the half-inhibitory concentration (IC50) in data set [1] and in data set [13] was 11.4 µM throughout. Further, the CC50 at 40 h in [3] is over 100 µM.

With `CCCc1c(Cl)c(OC)c(Cl)c(O)c1Oc1c(Cl)c(O)c(Cl)c2c1C(=O)O[C@@H]2CC`, the IC50 in data set [1] was over 50 µM. The molecule also returned a half-maximal cytotoxic concentration (CC50) at 40 h in data set [3] of over 50 µM.

For `CCCc1cc(O)cc(O)c1C(=O)O`, in data set [1], the 50% inhibitory concentration (IC50) is over 100 µM. This molecule displayed a CC50 at 40 h in [3] of over 100 µM.

In the case of `CCOC(=O)C1=C[C@@H](OC(CC)CC)[C@H](NC(C)=O)[C@@H](N)C1` [OSELTAMIVIR], the IC50 in data set [1] is 10 µM. In addition, in [2], the concentration giving a half-maximal response (EC50) is over 83.2 µM. This molecule registered a CC50 at 40 h in [3] of over 100 µM.

Consider `CCCc1c(Cl)c(O)c(Cl)c(OC)c1Oc1c(Cl)c(O)c(Cl)c2c1C(=O)O[C@@H]2CC`, for which, in [1], the IC50 was 22.6 µM. Moreover, the 50% cytotoxic concentration (CC50) at 40 h in data set [3] was over 100 µM.

As to `CCOC(=O)c1c(CSc2ccccc2)n(C)c2cc(Br)c(O)c(CN(C)C)c12` [UMIFENOVIR], the Activity was -1.8 RU in data set [4]; 48.7 RU in [8]; 7.5 RU in data set [9]; 1.2 RU in data set [10]; 20.7 RU in [11]; 102 RU in data set [14]. For the same molecule, in data set [6], the Ka turned out to be 11800 s⁻¹. In addition, the Kd in [7] came to 0.0009582 M⁻¹ s⁻¹; in data set [12], 0.081 µM.

For the molecule `CCCc1c(Cl)c(OC)c(Cl)c(OC)c1Oc1c(Cl)c(O)c(Cl)c2c1C(=O)O[C@@H]2CC`, the half-maximal inhibitory concentration (IC50) in [1] was over 50 µM. In addition, the CC50 at 40 h in data set [3] is over 50 µM.

Regarding `CCCc1c(Cl)c(OC)cc(OC)c1Oc1c(Cl)c(O)c(Cl)c2c1C(=O)O[C@@H]2CC`, the IC50 in data set [1] came to 16.2 µM. Further, the cytotoxic concentration (CC50) at 40 h in data set [3] was over 50 µM.
